CC(C)(C)C(=O)C(Oc1ccc(Cl)cc1)n1cncn1 (stereo not given)
solubility (mole fraction)
Conditions	288.15 K	293.15 K	298.15 K	303.15 K	308.15 K	313.15 K	318.15 K	323.15 K	328.15 K	333.15 K
in acetonitrile	0.011	0.0132	0.0162	0.0196	0.0238	0.0285	0.034	0.0407	0.0479	0.057
in cyclohexane	0.000445	0.00143	0.00382	0.00873	0.0178	0.0315	0.0489	0.0692	0.0869	0.0986
in n-heptane	0.00129	0.00204	0.00321	0.00483	0.00737	0.0111	0.0164	0.0238	0.034	0.0491
in n-hexane	0.000262	0.000539	0.00104	0.00197	0.0035	0.00592	0.00984	0.0156	0.0233	0.0354
in p-xylene	0.0631	0.0846	0.112	0.147	0.188	0.239	0.299	0.372	0.456	0.553
in toluene	0.0916	0.119	0.154	0.192	0.235	0.282	0.333	0.381	0.431	0.475

— BigSolDB 2.1
